Measurements reported in article PMC9226124, “Macrocycle-stabilization of its interaction with 14-3-3 increases plasma membrane localization and activity of CFTR” (Nature Communications, 2022).
Several values for one entry are separate records, joined by “and”; a condition that tells them apart may be missing. Identical values can stand only once. Blank lines part the entries; values can stand above or below the compound they belong to.

How the values were obtained:
[1] = molecular target: T1, FITC-labeled CFTRpS753pS768 peptide (no 14-3-3) (Homo sapiens, UniProt P13569); assay: Dose-response FP control assay in the absence of 14-3-3; type: binding; details: No 14-3-3
T1 construct: made in house; host or cells: synthetic peptide
How it was run: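 Control run without 14-3-3: FITC-CFTR pS753/pS768 peptide (100 nM or 10 nM) with compound titrated in twofold dilutions in 10 mM HEPES pH 7.4, 150 mM NaCl, 0.1% Tween20, 1 mg/mL BSA. Fluorescence polarization read at ex 485/em 535 nm, background subtracted, n = 3. Curves fitted by four-parameter log(agonist) vs. response.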

[2] = molecular target: T2, F508del-CFTR in BHK cells (Homo sapiens, UniProt P13569, DEL508-508); assay: FLIPR membrane potential (FMP) assay; type: cell-based, hamster; details: individual replicates
T2 construct: expressed in transfected cells; host or cells: baby hamster kidney (BHK) cells
How it was run: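 BHK cells expressing F508del-CFTR were incubated 24 h at 37 °C with 20 μM compound. FMP dye plus genistein was added in low-Cl⁻ buffer (pH 7.4), then forskolin after a 2 min baseline. Fluorescence was monitored 5 min; the value is the rate of fluorescence change.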

T2 sequence (P13569 with tags, fused parts or gaps DEL508-508): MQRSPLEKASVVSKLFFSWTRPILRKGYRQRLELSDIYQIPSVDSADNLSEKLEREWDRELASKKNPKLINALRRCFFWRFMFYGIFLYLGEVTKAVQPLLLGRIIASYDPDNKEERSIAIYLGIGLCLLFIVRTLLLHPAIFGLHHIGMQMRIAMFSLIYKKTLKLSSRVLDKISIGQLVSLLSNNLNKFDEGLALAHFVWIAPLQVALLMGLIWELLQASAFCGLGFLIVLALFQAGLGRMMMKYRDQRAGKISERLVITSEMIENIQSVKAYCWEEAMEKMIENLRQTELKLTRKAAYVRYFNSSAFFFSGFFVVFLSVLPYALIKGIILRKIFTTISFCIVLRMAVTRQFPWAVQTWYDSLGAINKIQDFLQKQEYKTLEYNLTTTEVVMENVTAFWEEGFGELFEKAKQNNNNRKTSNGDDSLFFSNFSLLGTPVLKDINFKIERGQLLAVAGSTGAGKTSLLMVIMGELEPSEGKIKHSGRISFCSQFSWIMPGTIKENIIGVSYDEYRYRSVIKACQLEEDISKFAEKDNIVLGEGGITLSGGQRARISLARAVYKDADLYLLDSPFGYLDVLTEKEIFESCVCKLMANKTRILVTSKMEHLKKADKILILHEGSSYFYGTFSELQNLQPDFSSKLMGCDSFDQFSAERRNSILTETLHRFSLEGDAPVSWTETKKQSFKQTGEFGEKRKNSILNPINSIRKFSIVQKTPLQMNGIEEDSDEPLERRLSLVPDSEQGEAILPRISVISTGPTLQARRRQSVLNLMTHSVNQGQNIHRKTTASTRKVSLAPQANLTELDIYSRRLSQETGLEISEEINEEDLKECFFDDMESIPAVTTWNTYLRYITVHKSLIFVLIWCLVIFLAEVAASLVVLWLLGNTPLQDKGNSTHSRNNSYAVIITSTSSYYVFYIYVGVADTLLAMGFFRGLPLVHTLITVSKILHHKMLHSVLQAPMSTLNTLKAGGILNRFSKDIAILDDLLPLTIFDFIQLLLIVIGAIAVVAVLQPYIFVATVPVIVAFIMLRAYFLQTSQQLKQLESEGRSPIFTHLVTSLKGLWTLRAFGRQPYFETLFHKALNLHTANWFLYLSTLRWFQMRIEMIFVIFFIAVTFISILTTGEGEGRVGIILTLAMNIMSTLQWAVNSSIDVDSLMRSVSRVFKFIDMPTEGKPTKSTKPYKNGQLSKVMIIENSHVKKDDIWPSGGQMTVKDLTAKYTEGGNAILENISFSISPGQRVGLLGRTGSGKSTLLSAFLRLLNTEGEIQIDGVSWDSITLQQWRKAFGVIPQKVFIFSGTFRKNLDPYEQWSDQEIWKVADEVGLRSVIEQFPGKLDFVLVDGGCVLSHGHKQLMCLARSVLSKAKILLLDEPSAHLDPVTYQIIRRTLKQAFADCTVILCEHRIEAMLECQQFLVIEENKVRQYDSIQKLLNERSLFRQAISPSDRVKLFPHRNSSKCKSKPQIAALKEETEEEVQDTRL
T1 sequence (P13569 747-774 limits assumed): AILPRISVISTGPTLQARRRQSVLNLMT

FP signal ([1]; compound 453 pM): 1 | FP signal ([1]; compound 906 pM): 2 | FP signal ([1]; compound 1.81198e-9 M): 2 | FP signal ([1]; compound 3.62396e-9 M): 3 | FP signal ([1]; compound 7.24792e-9 M): 3 | FP signal ([1]; compound 1.44958e-8 M): 1 | FP signal ([1]; compound 2.89917e-8 M): 3 | FP signal ([1]; compound 5.79834e-8 M): 4 | FP signal ([1]; compound 1.15967e-7 M): 3 | FP signal ([1]; compound 2.31934e-7 M): 4 | FP signal ([1]; compound 4.63867e-7 M): 6 | FP signal ([1]; compound 9.27734e-7 M): 3 | FP signal ([1]; compound 1.85547e-6 M): 3 | FP signal ([1]; compound 3.71094e-6 M): 4 | FP signal ([1]; compound 7.42187e-6 M): 6 | FP signal ([1]; compound 1.48437e-5 M): 6 | FP signal ([1]; compound 2.96875e-5 M): 6 | FP signal ([1]; compound 5.9375e-5 M): 26 | FP signal ([1]; compound 0.00011875 M): 67 | FP signal ([1]; compound 0.0002375 M): 127 | FP signal ([1]; compound 0.000475 M): 188 | FP signal ([1]; compound 0.00095 M): 241
Structure (SMILES): N=C(N)NCCCC1NC(=O)C(CCC(N)=O)NC(=O)C(CCCNC(=N)N)NC(=O)C2CCCN2Cc2ccccc2Sc2ccccc2CNC1=O (stereo not shown) [CY007502]
FMP assay signal (Fig5b) [2]: 13.036 and 27.929 and 39.536 and 44.036 and 44.893 and 22.781

FP signal ([1]; compound 476.8 pM): 6 | FP signal ([1]; compound 953.7 pM): 6 | FP signal ([1]; compound 1.90735e-9 M): 5 | FP signal ([1]; compound 3.8147e-9 M): 4 | FP signal ([1]; compound 7.6294e-9 M): 7 | FP signal ([1]; compound 1.52588e-8 M): 6 | FP signal ([1]; compound 3.05176e-8 M): 5 | FP signal ([1]; compound 6.10352e-8 M): 4 | FP signal ([1]; compound 1.2207e-7 M): 4 | FP signal ([1]; compound 2.44141e-7 M): 5 | FP signal ([1]; compound 4.88281e-7 M): 6 | FP signal ([1]; compound 9.76563e-7 M): 6 | FP signal ([1]; compound 1.95313e-6 M): 5 | FP signal ([1]; compound 3.90625e-6 M): 8 | FP signal ([1]; compound 7.8125e-6 M): 9 | FP signal ([1]; compound 1.5625e-5 M): 16 | FP signal ([1]; compound 3.125e-5 M): 30 | FP signal ([1]; compound 6.25e-5 M): 55 | FP signal ([1]; compound 0.000125 M): 97 | FP signal ([1]; compound 0.00025 M): 149 | FP signal ([1]; compound 0.0005 M): 194 | FP signal ([1]; compound 0.001 M): 224
Structure (SMILES): NCCCCC1NCc2ccccc2Sc2ccccc2CNC(=O)C(Cc2cccc(Cl)c2)NC(=O)C(Cc2ccc(O)cc2)NC1=O (stereo not shown) [CY007288]
FMP assay signal (Fig5b) [2]: 56.536 and 49 and 51.321 and 53.964 and 53 and 52.964
